The source of these data is ChEMBL document CHEMBL3734728, “2,30-Bis(10H-indole) heterocycles: New p53/MDM2/MDMX antagonists” (Bioorg Med Chem Lett, 2015).

Some results are limits rather than exact numbers.

One series has as its target T1, Protein Mdm4 (Homo sapiens, UniProt O15151).
T1 sequence (O15151 whole entry): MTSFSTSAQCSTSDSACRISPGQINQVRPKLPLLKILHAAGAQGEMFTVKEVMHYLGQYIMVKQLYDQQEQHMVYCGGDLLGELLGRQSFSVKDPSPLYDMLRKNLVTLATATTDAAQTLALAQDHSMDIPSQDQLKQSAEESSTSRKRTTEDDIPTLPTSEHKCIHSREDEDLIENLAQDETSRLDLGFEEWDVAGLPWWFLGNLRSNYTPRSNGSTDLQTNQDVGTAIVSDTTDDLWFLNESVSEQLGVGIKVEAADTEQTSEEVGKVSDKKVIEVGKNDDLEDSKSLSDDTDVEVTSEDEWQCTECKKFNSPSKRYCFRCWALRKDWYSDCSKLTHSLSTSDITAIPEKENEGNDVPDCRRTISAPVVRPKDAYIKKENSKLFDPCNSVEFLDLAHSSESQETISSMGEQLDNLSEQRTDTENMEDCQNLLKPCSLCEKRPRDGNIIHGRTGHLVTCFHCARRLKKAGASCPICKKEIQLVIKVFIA

Series [1] deals with E3 ubiquitin-protein ligase Mdm2 (Homo sapiens, UniProt Q00987).
Series [2] can be described thus: Lipophilicity, logP of the compound. The series is classed as physicochemical. The settings on record: octanol/water.

E3 ubiquitin-protein ligase Mdm2, sequence (Q00987 whole entry): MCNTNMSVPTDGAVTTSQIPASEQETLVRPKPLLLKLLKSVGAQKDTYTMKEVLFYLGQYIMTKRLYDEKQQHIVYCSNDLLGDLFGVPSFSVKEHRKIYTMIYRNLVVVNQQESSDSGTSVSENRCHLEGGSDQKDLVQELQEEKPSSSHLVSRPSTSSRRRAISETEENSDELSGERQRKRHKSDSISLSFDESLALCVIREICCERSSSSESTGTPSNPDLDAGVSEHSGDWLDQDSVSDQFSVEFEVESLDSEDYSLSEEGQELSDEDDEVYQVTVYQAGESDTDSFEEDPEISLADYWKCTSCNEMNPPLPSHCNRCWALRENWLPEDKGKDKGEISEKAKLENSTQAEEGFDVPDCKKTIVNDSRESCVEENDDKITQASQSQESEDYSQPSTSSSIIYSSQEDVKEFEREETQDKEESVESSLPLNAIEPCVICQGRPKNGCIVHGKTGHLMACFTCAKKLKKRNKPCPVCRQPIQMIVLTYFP

For the compound `CCOC(=O)c1[nH]c2cc(Cl)ccc2c1-c1c(-c2ccc(Cl)cc2)c2ccccc2n1Cc1ccc(Cl)cc1`, the figures for the Ki (on Protein Mdm4; in series [1]) were greater than 60 µM and greater than 22 µM, respectively. In series [2], the lipophilicity (logP) (as a rule, the decadic logarithm of the partition coefficient of the neutral form, usually between octanol and water) worked out at 8.38.

For `O=C(O)c1[nH]c2cc(Cl)ccc2c1-c1c(-c2ccc(F)cc2)c2ccccc2n1Cc1ccc(Cl)cc1`, in series [2], the logP is 7.38.

The compound `O=C(NCCN1CCOCC1)c1[nH]c2cc(Cl)ccc2c1-c1c(-c2ccccc2)c2ccccc2n1Cc1ccc(Cl)cc1` displayed a logP in series [2] of 6.4.

The compound `CCOC(=O)c1[nH]c2cc(Cl)ccc2c1-c1c(-c2ccccc2)c2ccccc2n1Cc1ccc(Cl)cc1` yielded a logP in series [2] of 7.82.

In series [2], `Clc1ccc(Cn2c(-c3c[nH]c4cc(Cl)ccc34)c(-c3ccccc3)c3ccccc32)cc1` showed a logP of 7.61.

The compound `CCOC(=O)c1[nH]c2cc(Cl)ccc2c1-c1c(-c2ccc(F)cc2)c2ccccc2n1Cc1ccc(Cl)cc1` gave a logP in series [2] of 7.98.

In turn, `O=C(O)c1[nH]c2cc(Cl)ccc2c1-c1c(-c2ccccc2)c2ccccc2n1Cc1ccc(Cl)cc1` returned a logP in series [2] of 7.22.
